Source: US20190275167A1, “GLASS FORMULATIONS AND USES THEREOF” (priority 2018, published 2019)

Assays:
[1] = Drug release from heat-molded pellets/articles in release buffer (PBS, 1% FBS in PBS or 100% FBS) at 37° C., HPLC quantification; assay type: physicochemical; conditions: for Drug release from heat molded pellets: pellets 1 mm×1 mm
Description: Samples were incubated at 37° C. on a shaker rotating at 115 rpm. After 1 day, 3 days, 7 days, and subsequently in alternating 3 and 4 day intervals (i.e., 1, 3, 7, 10, 14 days etc.), release buffer was sampled directly (PBS) or syringe filtered, proteins were precipitated with acetonitrile, and drug release products were extracted. The samples were analyzed by high performance liquid chromatography (HPLC) to quantify drug products.

[2] = system: joint of a subject suffering from inflammation, e.g., arthritis; experiment: Microparticles and nanoparticles injected into the joint of a subject suffering from inflammation; assay type: in vivo
Source text: Microparticles and nanoparticles are formed from Compound 1 according to the methods described in above. […] Local inflammation in the joint of the subject is reduced. Similarly, the other compounds of the disclosure can likewise be used to form micro- and nanoparticles and injected into the joint of a subject for the purposes of treating, e.g., inflammation, and the drug is released at a steady rate over several months (e.g., three months).

[3] = Ethylene oxide (ETO) gas sterilization of heat-molded pellets, purity by HPLC and drug release pre- and post-ETO; assay type: physicochemical; conditions: ETO gas at 55° C.

Compound | Drug release from heat molded pellets ([1]; 100% FBS, 37° C.) | Drug release from heat molded pellets ([1]; PBS, 37° C.) | Speed of drug release compared to other drug dimers with triethylene glycol linker ([1]; 100% FBS) | also measured
Ethinylestradiol-Triethylene Glycol-Ethinylestradiol [Compound 16] | no drug was released | no drug was released | – | –
Cholesterol-Triethylene Glycol-Cholesterol [Compound 14] | no drug was released | no drug was released | – | –
Fusidic Acid-Triethylene Glycol-Fusidic Acid (ester) [Compound 15] | no drug was released | no drug was released | – | –
Hydrocortisone-Triethylene Glycol-Hydrocortisone [Compound 2] | – | – | release very quickly | –
C[C@@H]1C[C@H]2[C@@H]3CCC4=CC(=O)C=C[C@]4(C)[C@@]3(F)[C@@H](O)C[C@]2(C)[C@@]1(O)C(=O)COC(=O)OCCOCCOCCOC(=O)OCC(=O)[C@@]1(O)[C@H](C)C[C@H]2[C@@H]3CCC4=CC(=O)C=C[C@]4(C)[C@@]3(F)[C@@H](O)C[C@@]21C [Compound 1, Dexamethasone-Triethylene Glycol-Dexamethasone] | – | – | – | Shape of pellets during surface erosion (FIG. 1F (100% FBS)): maintaining their shape; Physical form (shape) changes of articles (physiologically relevant conditions): do not; Mechanism of drug release from pellets (representative images over time) ([1]; 100% FBS, 37° C.): surface erosion; Dexamethasone release profile from articles ([1]; over the course of 12 weeks or more, FIGS. 1E, 12E, 15C, 17D): generally linear; Local inflammation in the joint of the subject [2]: reduced; Release of drug into the subject from injected micro- and nanoparticles [2]: steady rate over three months; Change in pellet purity due to ETO sterilization (HPLC) ([3]; pre- vs post-sterilization): no changes; Change in release properties due to ETO sterilization ([3]; release in 1% FBS in PBS or 100% FBS): no changes
Fusidic Acid-Triethylene Glycol-Fusidic Acid (carbonate ester) [Compound 9] | – | – | release very quickly | –
